Measured values from PubChem BioAssay (NCI).
“And” between values parts separate entries of the source, which are not always exact repeats. Identical values can stand only once.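 Interpolation was linear, between the two tested concentrations surrounding the appropriate level; five concentrations were tested over 48 hours in 96-well plates. Abbreviation: GI50, concentration required for 50% inhibition of growth. The concentration for full growth arrest is given as TGI.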

Experiments:
Experiment in all cases: NCI anticancer screen, dose series, 48 h
COLO 205 colon = tested on: COLO 205 colon
HCC-2998 colon = tested on: HCC-2998 colon
KM12 colon = tested on: KM12 colon
NCI-H23 lung = tested on: NCI-H23 lung
OVCAR-8 ovarian = tested on: OVCAR-8 ovarian
SF-295 CNS = tested on: SF-295 CNS
SK-MEL-28 melanoma = tested on: SK-MEL-28 melanoma
UACC-257 melanoma = tested on: UACC-257 melanoma
BT-549 breast = tested on: BT-549 breast
T-47D breast = tested on: T-47D breast

Row | Compound | TGI (COLO 205 colon) | TGI (HCC-2998 colon) | TGI (KM12 colon) [µM] | TGI (NCI-H23 lung) [µM] | TGI (OVCAR-8 ovarian) [µM] | TGI (SF-295 CNS) [µM] | TGI (SK-MEL-28 melanoma) [µM] | TGI (UACC-257 melanoma) [µM] | GI50 (COLO 205 colon) [µM] | GI50 (KM12 colon) [µM] | GI50 (NCI-H23 lung) [µM] | GI50 (OVCAR-8 ovarian) [µM] | GI50 (SF-295 CNS) [µM] | GI50 (SK-MEL-28 melanoma) [µM] | GI50 (UACC-257 melanoma) [µM] | GI50 (BT-549 breast) [µM] | TGI (BT-549 breast) [µM] | GI50 (T-47D breast) [µM] | TGI (T-47D breast) [µM] | GI50 (HCC-2998 colon) [µM]
1 | CS(=O)(=O)ON1C(=O)c2ccc(N)cc2C1=O | > 100 µM | > 100 µM | > 100 | > 100 | 60.8 | > 100 | > 88.6 | > 31.6 | – | – | – | – | – | – | – | – | – | – | – | –
2 | CC(=O)[CH-]C(=O)c1ccccc1.CC(=O)[CH-]C(=O)c1ccccc1.CC[C@H](CCC(C)[C@H]1CCC2[C@@H]3CC=C4C[C@@H]([O-])CC[C@]4(C)C3CC[C@@]21C)C(C)C.CC[C@H](CCC(C)[C@H]1CCC2[C@@H]3CC=C4C[C@@H]([O-])CC[C@]4(C)C3CC[C@@]21C)C(C)C.Cl.[Ti+4] (stereo partly specified) | > 25 µM | > 25 µM | > 25 | > 25 | > 25 | > 25 | > 25 | > 25 | – | – | – | – | – | – | – | – | – | – | – | –
3 | CN(C)CC1CCCC/C1=N\OC(=O)c1ccccc1 (stereo unspecified) | > 100 µM | > 100 µM | > 100 | > 100 | > 100 | > 100 | > 100 | > 100 | – | – | – | – | – | – | – | – | – | – | – | –
4 | CC(=O)[CH-]C(=O)c1ccccc1.CC(=O)[CH-]C(=O)c1ccccc1.CC(=O)[CH-]C(=O)c1ccccc1.[Cl-].[Hf+4] | > 100 µM | – | > 100 | > 100 | > 100 | > 100 | 85.3 | 75.3 | 34 | 36.1 | 39.1 | 27.9 | 19.8 | 23.6 | 19.9 | – | – | – | – | –
5 | O=C(O)C1CC[N-]CC1.O=C(O)C1CC[N-]CC1.[NH2-].[NH2-].[Pt+4] | > 100 µM | – | > 100 | > 100 | > 100 | > 100 | > 100 | > 100 | > 100 | > 100 | > 100 | > 100 | > 100 | > 100 | > 100 | > 100 | > 100 | > 100 | > 100 | –
6 | c1ccc(C2=Nc3ccccc3N3CNN=C23)cc1 | > 100 µM | > 100 µM | > 100 | > 100 | > 100 | > 100 | – | > 100 | > 100 | > 100 | > 100 | > 100 | > 100 | – | > 100 | – | – | 74.8 | > 100 | > 100
7 | COC12OCCN(C)C1=CC(=O)C1N=NCC12 (stereo unspecified) | > 100 µM | > 100 µM | > 100 | > 100 | > 100 | > 100 | > 100 | > 100 | – | – | – | – | – | – | – | – | – | – | – | –
8 | O=C(CC(=O)N1N=C(n2ccc3ccccc32)CC1c1ccccc1)Nc1ccccc1Cl (stereo unspecified) | > 100 µM | > 100 µM | > 100 | > 100 | > 100 | > 100 | > 100 | > 100 | – | – | – | – | – | – | – | – | – | – | – | –
9 | O=c1[nH]c(-c2ccccc2)nc2cc([N+](=O)[O-])c(/C(Cl)=C/c3ccccc3)cc12 | 79.9 µM | > 100 µM | > 100 | > 100 | 45.4 | 53.5 | > 100 | 48.3 | – | – | – | – | – | – | – | – | – | – | – | –
10 | COc1cccc(N2C(=N)/C(=C3\Nc4ccccc4S3)CC2=O)c1 | > 100 µM | – | > 100 | > 100 | > 100 | 8.1 | > 100 | > 100 | 9.25 | 7.48 | 39.4 | 7.9 | 1.64 | > 100 | > 100 | 44.9 | > 100 | 18.9 | > 100 | –
11 | COc1c(CC(C)=O)c2ccccc2n1C(C)=O | > 100 µM | > 100 µM | > 100 | > 100 | > 100 | > 100 | > 100 | > 100 | – | – | – | – | – | – | – | – | – | – | – | –
12 | C/C(=C\CNc1ncnc2c1ncn2C1CCCCO1)COP(=O)(O)O (stereo unspecified) | > 100 µM | > 100 µM | > 100 | > 100 | > 100 | > 100 | > 100 | > 100 | – | – | – | – | – | – | – | – | – | – | – | –
13 | O=C(CCl)N1CCN(c2ccccc2)CC1 | 40 µM | 32.2 µM | 37.2 | 35.6 | 97.2 | 36.2 | 35.7 | 43.6 | – | – | – | – | – | – | – | – | – | – | 45.8 | –
14 | [pH]1p2[pH]p3p1p3[pH]2.c1cc[c]([Ge]([c]2ccccc2)[c]2ccccc2)cc1.c1cc[c]([Ge]([c]2ccccc2)[c]2ccccc2)cc1.c1cc[c]([Ge]([c]2ccccc2)[c]2ccccc2)cc1 | 26.2 µM | 31 µM | 33.7 | 31.2 | 35.3 | 42.9 | 25 | 31.7 | 12.1 | 15.1 | 15.3 | 13.5 | 21.2 | 11.9 | 15.2 | – | – | – | – | 17
15 | COC(=O)C1=C(C)N(NC(N)=O)C2(N)N(NC(N)=O)C(C)=C(C(=O)OC)C12C#N (stereo unspecified) | > 100 µM | > 100 µM | > 100 | > 100 | > 100 | > 100 | > 100 | > 100 | – | – | – | – | – | – | – | – | – | – | – | –
16 | CC(=O)NNc1nc(C)c(C(=O)/C=C/c2ccc(N(C)C)cc2)s1 | > 100 µM | > 100 µM | > 100 | > 100 | > 100 | > 100 | > 100 | > 100 | – | – | – | – | – | – | – | – | – | – | – | –
17 | COc1ccc(N=Nc2c(-c3ccccc3)nn(C(=O)CC(=O)Nc3ccc(OC)cc3)c2-c2ccccc2)cc1 | > 100 µM | > 100 µM | > 100 | > 100 | > 100 | > 100 | > 100 | > 100 | – | – | – | – | – | – | – | – | – | – | – | –
18 | NC(N)=NCCCC(Nc1c2ccccc2nc2ccccc12)C(=O)O (stereo unspecified) | > 100 µM | > 100 µM | > 100 | > 100 | > 100 | > 100 | > 100 | > 100 | – | – | – | – | – | – | – | – | – | – | – | –
19 | O=C1NC(c2cccc3ccccc23)Nc2ccc(Cl)cc21 (stereo unspecified) | 0.0175 µM and 0.0795 µM | 0.285 µM and 0.0607 µM | 0.803 | 14.9 | 11.4 | 0.0232 | 20.6 | – | – | – | 0.011 | – | – | – | – | – | – | – | 68.5 | –
